Where two headings read alike, the source gives them in different places.

By Ki is commonly meant the dissociation constant of the complex between target and ligand, obtained from inhibition or displacement.

Common to all, as to type: biochemical
One test deals with T1, Bovine cathepsin S (Bos taurus, UniProt P25326).
T1 construct: purchased CN Biosciences
The test can be described thus: Cathepsin S peptidase activity assay, bovine enzyme (Ki). The method in brief:
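Bovine cathepsin S activity followed by fluorescence increase from substrate conversion to product over time, enzyme added to start the reaction, at 25±1° C. Buffer 10 mM bis-tris-propane pH 6.5 with 1 mM EDTA, 5 mM 2-mercaptoethanol, 1 mM CaCl2; DMSO kept below 1% (vol./vol.).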

The target of the next test is T2, human cathepsin L (Homo sapiens, UniProt P07711).
T2 construct: purchased CN Biosciences
The test can be described thus: Cathepsin L peptidase activity assay (Ki). In outline:
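Run at 25±1° C with DMSO under 1%: buffer was 10 mM BTP pH 6.5 containing 1 mM EDTA, 1 mM CaCl2 and 5 mM 2-mercaptoethanol. Enzyme (1 nM cathepsin L) was added last to start hydrolysis of Ac-Phe-Arg-AMC held at KM^app (~20 μM), followed kinetically by fluorescence at 365/450 nm.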

The next test addresses T3, CPB2.8ΔCTE (Leishmania mexicana, UniProt P36400).
T3 construct: Wild-type recombinant CPB without the C-terminal extention (i.e. CPB2.8ΔCTE); Dr. Jeremy Mottram (Wellcome Centre for Molecular Parasitology, University of Glasgow)
The test can be described thus: Leishmania mexicana cysteine protease B (CPB) peptidase activity assay (Ki). The method in brief:
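Apparent Ki was derived by regression of activity against inhibitor concentration, assuming pure-competitive reversible binding. Reaction: 0.25 nM CPB lacking the C-terminal extension, pH 5.5 acetate buffer (1 mM EDTA, 200 mM NaCl, 10 mM DTT), 25 °C, followed by continuous substrate fluorescence.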

[1] abbreviates: species of cathepsin S not given, read-out: Ki, inhibitors of cathepsin S.
Where [2] appears, read: read-out: Ki, inhibitors of cathepsin L.
[3] abbreviates: Ki, inhibitors of Leismania mexicana CPB protease.
Setting [4] is: Table 5, read-out: Ki Bovine Cathepsin S.
The mark [5] stands for this setting: Table 5, read-out: Ki Human Cathepsin L.

T1 sequence (P25326 115-331): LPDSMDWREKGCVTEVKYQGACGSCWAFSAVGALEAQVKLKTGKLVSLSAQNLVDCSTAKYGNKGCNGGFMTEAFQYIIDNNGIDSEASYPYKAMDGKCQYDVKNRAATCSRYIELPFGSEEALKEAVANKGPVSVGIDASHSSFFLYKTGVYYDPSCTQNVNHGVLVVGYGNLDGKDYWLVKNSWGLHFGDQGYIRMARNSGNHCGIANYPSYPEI
T3 sequence (P36400 126-343, stated change not applied): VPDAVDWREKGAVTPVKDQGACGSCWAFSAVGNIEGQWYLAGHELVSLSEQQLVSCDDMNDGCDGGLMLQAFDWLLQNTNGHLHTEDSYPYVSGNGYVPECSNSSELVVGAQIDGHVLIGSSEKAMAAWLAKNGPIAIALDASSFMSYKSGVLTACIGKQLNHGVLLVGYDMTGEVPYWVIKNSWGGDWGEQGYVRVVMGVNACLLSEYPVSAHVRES
T2 sequence (P07711 114-333): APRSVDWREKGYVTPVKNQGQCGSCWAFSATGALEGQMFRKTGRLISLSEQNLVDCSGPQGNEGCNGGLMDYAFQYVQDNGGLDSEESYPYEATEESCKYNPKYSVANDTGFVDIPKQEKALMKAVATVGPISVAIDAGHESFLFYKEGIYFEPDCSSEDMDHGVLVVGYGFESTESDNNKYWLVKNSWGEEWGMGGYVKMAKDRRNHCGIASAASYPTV

Regarding `CC(C)CC(NC(=O)c1ccc(N)cc1)C(=O)N1NC[C@@H]2[C@H]1C(=O)CN2C(=O)c1ccccc1` (stereo partly drawn) [Example 249b, (3aR,6aS)-4-amino-N-[1-(4-benzoyl-6-oxo-hexahydropyrrolo[3,2-c]pyrazole-1-carbonyl)-3-methylbutyl)benzamide], the Ki at Bovine cathepsin S (setting [1]), on human cathepsin L (setting [2]) and on CPB2.8ΔCTE (setting [3]) was < 5 µM in each case.
In the case of `O=C(N[C@@H](CC1CCCCC1)C(=O)N1CC[C@@H]2[C@H]1C(=O)CN2C(=O)c1ccccc1)c1ccsc1` [Example 250, (3aR,6aS)-Thiophene-3-carboxylic acid [(1S)-2-(4-benzoyl-6-oxo-hexahydro-pyrrolo[3,2-b]pyrrole-1-yl)-1-cyclohexylmethyl-2-oxo-ethyl]-amide], the Ki at Bovine cathepsin S (setting [4]) is < 0.1 µM; on human cathepsin L (setting [5]) it was > 1 µM; on human cathepsin L (setting [2]), < 5 µM; at CPB2.8ΔCTE (Ki CPB, Table 5), > 5 µM.
As to `CC(C)C[C@H](NC(=O)c1cccc(N(C)C)c1)C(=O)N1CC[C@@H]2[C@H]1C(=O)CN2C(=O)c1cccc(S(C)(=O)=O)c1` [Example 59, (3aR,6aS)-3-Dimethylamino-N-{(1S)-1-[4-(3-methanesulfonyl-benzoyl)-6-oxo-hexahydro-pyrrolo[3,2-b]pyrrole-1-carbonyl]-3-methyl-butyl}-benzamide], the Ki at Bovine cathepsin S (setting [1]), at human cathepsin L (setting [2]) and on CPB2.8ΔCTE (setting [3]) was < 5 µM in each case.
Take `CC(C)C[C@H](NC(=O)c1ccc2c(c1)CCCN2)C(=O)N1CC[C@@H]2[C@H]1C(=O)CN2C(=O)c1ccccc1` [Example 87, (3aR,6aS)-1,2,3,4-Tetrahydro-quinoline-6-carboxylic acid [(1S)-1-(4-benzoyl-6-oxo-hexahydro-pyrrolo[3,2-b]pyrrole-1-carbonyl)-3-methyl-butyl]-amide]: the Ki at Bovine cathepsin S (setting [1]), at human cathepsin L (setting [2]) and at CPB2.8ΔCTE (setting [3]) was < 5 µM throughout.
Take `CC(C)C[C@H](NC(=O)c1ccc(N(C)C)cc1)C(=O)N1CC[C@@H]2[C@H]1C(=O)CN2C(=O)c1ccccc1` [Example 14, (3aR,6aS)-N-[(1S)-1-(4-Benzoyl-6-oxo-hexahydro-pyrrolo[3,2-b]pyrrole-1-carbonyl)-3-methyl-butyl]-4-dimethylamino-benzamide]: the Ki on Bovine cathepsin S (setting [1]), at human cathepsin L (setting [2]) and on CPB2.8ΔCTE (setting [3]) was < 5 µM each time.
With `CC(C)(C)c1ccc(C(=O)N[C@@H](Cc2ccc(O)cc2)C(=O)N2CC[C@@H]3[C@H]2C(=O)CN3C(=O)c2ccccc2)cc1` [Example 346, (3aR,6aS)-N-[(1S)-2-(4-Benzoyl-6-oxo-hexahydro-pyrrolo[3,2-b]pyrrol-1-yl)-1-(4-hydroxybenzyl)-2-oxo-ethyl]-4-tert-butyl-benzamide], the Ki is > 10 µM at Bovine cathepsin S (setting [4]); > 3 µM at human cathepsin L (setting [5]); < 5 µM on human cathepsin L (setting [2]); > 5 µM at CPB2.8ΔCTE (Ki CPB, Table 5).
As to `CC(=O)N[C@@H](CC(C)C)C(=O)N1CC(=O)[C@@H]2[C@H]1CCN2C(=O)[C@H](CC(C)C)NC(=O)c1ccc(N(C)C)cc1` [Example 151, (3aR,6aS)-N-{(1S)-1-[4-((2S)-2-Acetylamino-4-methyl-pentanoyl)-6-oxo-hexahydro-pyrrolo[3,2-b]pyrrole-1-carbonyl]-3-methyl-butyl}-4-dimethylamino-benzamide], the Ki at Bovine cathepsin S (setting [1]), on human cathepsin L (setting [2]) and at CPB2.8ΔCTE (setting [3]) was < 5 µM throughout.
Take `CC(C)C[C@H](NC(=O)c1ccc(-n2cccn2)cc1)C(=O)N1CC[C@@H]2[C@H]1C(=O)CN2C(=O)c1ccccc1` [Example 91, (3aR,6aS)-N-[(1S)-1-(4-Benzoyl-6-oxo-hexahydro-pyrrolo[3,2-b]pyrrole-1-carbonyl)-3-methyl-butyl]-4-pyrazol-1-yl-benzamide]: the Ki at Bovine cathepsin S (setting [1]), at human cathepsin L (setting [2]) and on CPB2.8ΔCTE (setting [3]) was < 5 µM in each case.
On to `O=C(N[C@@H](Cc1ccc(O)cc1)C(=O)N1CC[C@@H]2[C@H]1C(=O)CN2C(=O)c1ccccc1)c1cccc2ccccc12` [Example 296, (3aR,6aS)-Naphthalene-1-carboxylic acid [(1S)-2-(4-benzoyl-6-oxo-hexahydro-pyrrolo[3,2-b]pyrrole-1-yl)-1-(4-hydroxybenzyl)-2-oxo-ethyl]-amide], for which the Ki at Bovine cathepsin S (setting [4]) was > 5 µM; at human cathepsin L (setting [5]) it was < 0.2 µM; at CPB2.8ΔCTE (Ki CPB, Table 5), > 5 µM.
On to `CC(C)C[C@H](NC(=O)c1cccc(N2CCNCC2)c1)C(=O)N1CC[C@@H]2[C@H]1C(=O)CN2C(=O)c1ccccc1` [Example 247, (3aR,6aS)-N-[(1S)-1-(4-Benzoyl-6-oxo-hexahydro-pyrrolo[3,2-b]pyrrole-1-carbonyl)-3-methyl-butyl]-3-piperazin-1-yl-benzamide], for which the Ki at Bovine cathepsin S (setting [1]), at human cathepsin L (setting [2]) and at CPB2.8ΔCTE (setting [3]) was < 5 µM each time.
Take `CC(C)C[C@H](NC(=O)c1ccc(OC(F)(F)F)cc1)C(=O)N1CC[C@@H]2[C@H]1C(=O)CN2C(=O)c1ccccc1` [Example 173, (3aR,6aS)-N-[(1S)-1-(4-Benzoyl-6-oxo-hexahydro-pyrrolo[3,2-b]pyrrole-1-carbonyl)-3-methyl-butyl]-4-trifluoromethoxy-benzamide]: the Ki at Bovine cathepsin S (setting [1]), at human cathepsin L (setting [2]) and on CPB2.8ΔCTE (setting [3]) was < 5 µM throughout.
As for `CC(C)C[C@H](NC(=O)c1ccc(-c2cccs2)cc1)C(=O)N1CC[C@@H]2[C@H]1C(=O)CN2C(=O)c1ccccc1` [Example 2, (3aR,6aS)-N-[(1S)-1-(4-Benzoyl-6-oxo-hexahydro-pyrrolo[3,2-b]pyrrole-1-carbonyl)-3-methyl-butyl]-4-thiophen-2-yl-benzamide], the Ki at Bovine cathepsin S (setting [4]) is > 1 µM; at human cathepsin L (setting [5]), > 3 µM; on CPB2.8ΔCTE (Ki CPB, Table 5) it was > 0.2 µM; at CPB2.8ΔCTE (setting [3]), < 5 µM.
Regarding `CC(C)C[C@H](NC(=O)c1ccc(N2CCNCC2)cc1)C(=O)N1CC[C@@H]2[C@H]1C(=O)CN2C(=O)c1ccccc1` [Example 194, (3aR,6aS)-N-[(1S)-1-(4-Benzoyl-6-oxo-hexahydro-pyrrolo[3,2-b]pyrrole-1-carbonyl)-3-methyl-butyl]-4-piperazin-1-yl-benzamide], the Ki at Bovine cathepsin S (setting [1]), at human cathepsin L (setting [2]) and at CPB2.8ΔCTE (setting [3]) was < 5 µM throughout.
With `CC(C)C[C@H](NC(=O)c1cc2ccccc2s1)C(=O)N1CC[C@@H]2[C@H]1C(=O)CN2C(=O)c1ccccc1` [Example 7, (3aR,6aS)-Benzo[b]thiophene-2-carboxylic acid [(1S)-1-(4-benzoyl-6-oxo-hexahydro-pyrrolo[3,2-b]pyrrole-1-carbonyl)-3-methyl-butyl]-amide], the Ki on Bovine cathepsin S (setting [1]) and on human cathepsin L (setting [2]) was < 5 µM throughout.
For the compound `CC(C)C[C@H](NC(=O)c1ccc(N(C)C)cc1)C(=O)N1CC[C@@H]2[C@H]1C(=O)CN2C(=O)[C@@H](NC(=O)OCc1ccccc1)C(C)C` [Example 158, (3aS,6aR)-((S)-1-{4-[(2S)-2-(4-Dimethylamino-benzoylamino)-4-methyl-pentanoyl]-3-oxo-hexahydro-pyrrolo[3,2-b]pyrrole-1-carbonyl}-2-methyl-propyl)-carbamic acid benzyl ester], the Ki on Bovine cathepsin S (setting [1]), at human cathepsin L (setting [2]) and at CPB2.8ΔCTE (setting [3]) was < 5 µM in each case.
Regarding `CC(C)C[C@H](NC(=O)c1ccc(C(C)(C)C)cc1)C(=O)N1NC[C@@H]2[C@H]1C(=O)CN2C(=O)c1ccccc1` [Example 249a, (3aR,6aS)-N-[(1S)-1-(4-benzoyl-6-oxo-hexahydropyrrolo[3,2-c]pyrazole-1-carbonyl)-3-methylbutyl]-4-tert-butylbenzamide], the inhibition constant Ki on Bovine cathepsin S (setting [1]), at human cathepsin L (setting [2]) and at CPB2.8ΔCTE (setting [3]) was < 5 µM in each case.
As to `CC(C)C[C@H](NC(=O)c1ccc(N(C)C)cc1)C(=O)N1CC[C@@H]2[C@H]1C(=O)CN2C(=O)c1csc2ccccc12` [Example 103, (3aR,6aS)-N-{(1S)-1-[4-(Benzo[b]thiophene-3-carbonyl)-6-oxo-hexahydro-pyrrolo[3,2-b]pyrrole-1-carbonyl]-3-methyl-butyl}-4-dimethylamino-benzamide], the Ki on Bovine cathepsin S (setting [1]), at human cathepsin L (setting [2]) and at CPB2.8ΔCTE (setting [3]) was < 5 µM throughout.
On to `CC(C)C[C@H](NC(=O)c1ccc(N)cc1)C(=O)N1NC[C@@H]2[C@H]1C(=O)CN2C(=O)c1cccc(S(C)(=O)=O)c1` [Example 249c, (3aR,6aS)-4-amino-N-{(1S)-1-[4-(3-methanesulfonylbenzoyl)-6-oxo-hexahydropyrrolo [3,2-c]pyrazole-1-carbonyl]-3-methylbutyl}benzamide], for which the Ki at Bovine cathepsin S (setting [1]), at human cathepsin L (setting [2]) and on CPB2.8ΔCTE (setting [3]) was < 5 µM throughout.
Regarding `CC(C)C[C@H](NC(=O)c1ccc2ncsc2c1)C(=O)N1CC[C@@H]2[C@H]1C(=O)CN2C(=O)c1ccccc1` [Example 90, (3aR,6aS)-Benzothiazole-6-carboxylic acid [(1S)-1-(4-benzoyl-6-oxo-hexahydro-pyrrolo[3,2-b]pyrrole-1-carbonyl)-3-methyl-butyl]-amide], the Ki at Bovine cathepsin S (setting [1]), at human cathepsin L (setting [2]) and on CPB2.8ΔCTE (setting [3]) was < 5 µM each time.

(Values after patent US20060100431A1, “Biologically active compounds” (Amura Therapeutics Limited, priority 2002, published 2006).)
